According to PMC12491680 (Acta Pharmaceutica Sinica. B, 2025):

Experiments:
[1] = tested on: gelsenicine (1)-poisoned mice; assay: Antidote screening: survival of gelsenicine-poisoned mice; assay type: in vivo, Kunming mice; details: gelsenicine 0.22 mg/kg i.p.
[2] = cited from earlier work
[3] = Acute toxicity of pure Gelsemium alkaloids in mice; details: both, Kunming, mouse, in vivo, ip, 30 mg/kg
[4] = assay type: in vivo, human; details: victim serum, UPLC-Q Exactive MS/MS
[5] = Detection of toxic alkaloids in mouse plasma after oral G. elegans extract; assay type: in vivo, Kunming mice; details: mice, oral G. elegans 95% ethanolic extract 200 mg/kg, blood 5 min after gavage
mice = assay: Respiratory function by whole-body plethysmography; assay type: in vivo, C57BL/6J mice; details: 0.22 mg/kg intraperitoneal
[6] = Quantitative analysis of gelsenicine in medulla; assay type: in vivo, C57BL/6J mice; details: 1 mg/kg intraperitoneal
VRG neurons = assay: Whole-cell recording of spontaneous action potentials in VRG neurons; assay type: cell-based, C57BL/6J mice
CA1 pyramidal neurons = assay: Whole-cell recording in hippocampal CA1 pyramidal neurons; assay type: cell-based, C57BL/6J mice

CCOC(=O)c1ncn2c1CN(C)C(=O)c1cc(F)ccc1-2 [flumazenil]
Survival rate of poisoned mice ([1]; antidote 3 mg/kg i.p.): 50% | Time to peak level ([2]; oral or intravenous, clinical and animal studies): ≤ 5 min

CCC1=N[C@H]2C[C@@]3(C(=O)N(OC)c4ccccc43)[C@H]3C[C@@H]1[C@@H]2CO3 [Compound 1, gelsenicine]
LD50 at 7 days [3]: 0.14 mg/kg | Detection in the clinical blood sample [4]: clearly detected | Detection in plasma [5]: detected in the plasma | Time to severe respiratory distress after injection (mice): 5 to 10 min | Peak expiratory flow, peak inspiratory flow, frequency, tidal volume and minute ventilation (mice; vs saline): significant reduction | Distribution to medulla ([6]; C57BL/6 mice, 5 and 10 min): quickly distributed to medulla at 5 min, and sustained until 10 min | Time of death ([6]; mice): around 10 min | Decrease of action potential firing rate (VRG neurons; VRG neurons, 1 μmol/L): about 60% | Decrease of action potential firing rate (VRG neurons; VRG neurons, 2 μmol/L): about 70% | Effect on action potential firing (VRG neurons; VRG neurons, 0.3 and 0.6 μmol/L): did not have an inhibitory effect | Effect on firing rate of picrotoxin-treated VRG neurons (VRG neurons; gelsenicine 1 μmol/L in the presence of picrotoxin 50 μmol/L): did not affect the firing rate | Concentration at which action potentials were suppressed (CA1 pyramidal neurons; CA1 pyramidal neurons): ≥ 5 µmol/L | Effect on action potential firing (CA1 pyramidal neurons; CA1 pyramidal neurons, 1 and 2 μmol/L): failed to show an inhibitory effect | Effect on miniature inhibitory synaptic currents (mIPSCs) (CA1 pyramidal neurons; hippocampus CA1 region, 5 μmol/L): increased the amplitude | Time of death after administration ([1]; mice, no antidote): around 15 min

CN1CCc2cc3c(cc2[C@H]1[C@@H]1OC(=O)c2c1ccc1c2OCO1)OCO3 [bicuculline, reference compound]
Effect on firing of VRG neurons inhibited by gelsenicine (VRG neurons; bicuculline 20 μmol/L after gelsenicine 1 μmol/L): restoring the normal firing rate

C/C=C1\CN(C)[C@H]2C[C@@]3(C(=O)N(OC)c4ccccc43)[C@H]3C[C@@H]1[C@@H]2CO3 [Compound 17, humantenine]
LD50 at 7 days [3]: 7.11 mg/kg | Detection in the clinical blood sample [4]: clearly detected | Detection in plasma [5]: detected in the plasma

CCC1(C)CC(=O)NC(=O)C1 [bemegride]
Survival rate of poisoned mice ([1]; antidote 6.5 mg/kg i.p.): 30% | Time to peak concentration and passage into the brain [2]: ≤ 30 min

picrotoxin [reference compound]
Effect on VRG neuron activity (firing rate vs baseline) (VRG neurons; picrotoxin 50 μmol/L alone): robust increase in activity

C=C[C@@]12CN(C)[C@H]3C[C@]14C(=Nc1ccccc14)[C@@H]1C[C@@H]2[C@@H]3CO1 [Compound 32, koumine]
LD50 at 7 days [3]: > 30 mg/kg | Detection in the clinical blood sample [4]: could also be detected

O=C1C=C2C=C[C@@H]3C[C@@]2(O1)[C@H]1CCCCN31 [securinine]
Survival rate of poisoned mice ([1]; antidote 3 mg/kg i.p.): 50% | Time to peak concentration in plasma ([2]; intraperitoneal injection): ≤ 9 min | Time to peak concentration in the brain ([2]; intraperitoneal injection): ≤ 30 min

C=C[C@]12CN(C)[C@@H]3[C@H]4CO[C@H](C[C@H]41)[C@]1(C(=O)Nc4ccccc41)[C@@H]32 [Compound 24, gelsemine]
Detection in the clinical blood sample [4]: could also be detected
